Article PMC8335727 (Inorganic Chemistry, 2021)
Like-named read-outs stand apart in the source and are kept apart here.

Columns and labels:
[1] = set-up: method as in earlier work; conditions: cited from earlier work
Colo320 cells = assay: Annexin-V-FITC/PI apoptosis induction assay (flow cytometry); format: cell-based, human; conditions: 3 h induction
Description: To gain further insights into the cytotoxic behavior of the compounds, apoptosis induction by lead compounds HL^1 and [Cu(L^2)Cl] was investigated by a flow cytometry analysis of multidrug-resistant Colo320 cells stained with Annexin-V-FITC and propidium iodide (PI).
Colo320 cells were treated at the indicated concentration of the drugs. The dual parametric dot plots that combine the Annexin-V (FL1) and PI (FL3) fluorescence show the viable cell population in the lower-left quadrant Annexin-V–/PI– (Q4), the early apoptotic cells in the lower-right quadrant Annexin-V+/PI– (Q3), and the late apoptotic and necrotic cells in the upper-right quadrant Annexin-V+/PI+ (Q2). […]
2.5.3. Mechanisms of cell death: assay for apoptosis induction
The assay was carried out for selected compounds using an Annexin V-FITC Apoptosis Detection
Kit (Cat. No. APOAF-50TST) from Sigma according to the manufacturer's instructions. The
concentration of the Colo320 cell suspension was adjusted to approximately 0.5 × 10^6 cells per
mL in RPMI medium and the cell suspension was distributed in 1 mL aliquots into a 24-well plate,
and then incubated overnight at 37 °C and 5% CO2. On the following day, the medium was
removed and replaced by 1 mL RPMI medium containing the compounds except the control
samples. Colo320 cells were incubated in the presence of the compounds at 4 and 8 μM (HL1), or
0.25 and 0.50 μM (Cu(HL2)Cl2) in the 24-well plate at 37 °C for 3 h, and 12H-
controls. After the incubation period the samples were washed with PBS and fresh RPMI medium
was added to the samples. The cells were incubated overnight at 37 °C and 5% CO2. The next day,
200 μL 0.25% Trypsin (Trypsin-Versen) was added to the samples until cells appeared detached
followed by the addition of 400 μL of RPMI medium supplemented with 10% bovine serum. The
cells were collected in Eppendorf tubes and centrifuged at 2000 g for 2 min. The harvested cells
were resuspended in fresh serum free RPMI medium culture medium. After this step, the apoptosis
assay was carried out according to the instructions of the manufacturer. The fluorescence was
analyzed immediately using a ParTec CyFlow flow cytometer (Partec GmbH, Münster, Germany). […]

MRC-5 [2] = assay: MTT cytotoxicity assay, MRC-5; format: cell-based; conditions: Homo sapiens, MRC5, 72 h of exposure
Description: (§1) 2.5. In vitro cell studies
(§2) 2.5.1. Cell lines and culture conditions
All cell culture reagents were obtained from Sigma-Aldrich and plastic ware from Sarstedt […]
(§3) MRC-5 human embryonal lung fibroblast cell line (ATCC CCL-171) was purchased from LGC
(§4) Promochem, Teddington, UK. The cell line was cultured in Eagle’s Minimal Essential Medi um
(§5) (EMEM, containing 4.5 g/L glucose) supplemented with a non-essential amino acid mixture, a
(§6) selection of vitamins and 10% heat-inactivated fetal bovine serum. The cells were incubated at
(§7) 37°C, in a 5% CO2, 95% air atmosphere. All cell lines were detached with Trypsin-Versene
(§8) (EDTA) solution for 5 min at 37 °C.
(§9) The tested compounds were dissolved in DMSO using 10 mM concentration. Then stock solutions
(§10) were diluted in complete culture medium in 96-well microtiter plates, and two-fold serial dilutions
(§11) of compounds were prepared in 100 µL of RPMI 1640, horizontally. The semi-adherent colonic
(§12) adenocarcinoma cells were treated with Trypsin -Versene (EDTA) solution. They were adjusted to
(§13) a density of 1×10^4 cells in 100 µL of RPMI 1640 medium, and were added to each well, with the
(§14) exception of the medium control wells. The final volume of the wells containing compounds and
(§15) cells was 200 µL. The culture were incubated at 37 °C for 72 h; at the end of the incubation period,
(§16) 20 µL of MTT solution (from a stock solution of 5 mg/mL) were added to each well. After
(§17) incubation at 37 °C for 4 h, 100 µL of SDS solution (10% in 0.01 M HCI) were added to each well
(§18) and the plates were further incubated at 37 °C overnight. The cell growth was determined using
(§19) both methods by measuring the optical density (OD) at 450 nm (ref. 620 nm) with a Multiscan EX
(§20) ELISA reader. Inhibition of the cell growth (expressed as IC 50: inhibitory concentration that
(§21) reduces by 50% the growth of the cells exposed to the tested compounds) was determined from
(§22) the sigmoid curve where 100 – ((ODsample ‒ ODmedium control)/(ODcell control ‒ ODmedium control)) × 100
(§23) values were plotted against the logarithm of compound concentrations. […]

Colo320 [3] = assay: MTT cytotoxicity assay, Colo320; format: cell-based; conditions: Homo sapiens, COLO 320, 72 h of exposure
Description: (§24) The in vitro cytotoxicity of the TSCs HL^1–HL^3, copper(II) complexes Cu(HL^1)Cl2, [Cu(L^2)Cl], and Cu(HL^3)Cl2, and oxidized TSCs HL^1a′, HL^1a″, and HL^2c′·CH3COOH was tested in the doxorubicin-sensitive Colo205 and the multidrug-resistant Colo320 human colonic adenocarcinoma cell lines as well as in normal human embryonal lung fibroblast cells (MRC-5) by the colorimetric MTT assay. […]
as §1, §2
(§25) All cell culture reagents were obtained from Sigma-Aldrich and plastic ware from Sarstedt
(§26) (Germany). Doxorubicin-sensitive human colonic Colo 205 and multidrug resistant
(§27) Colo 320/MDR-LRP adenocarcinoma cell lines were purchased from LGC Promochem,
(§28) Teddington, UK. The cells were cultured in Roswell Park Memorial Institute (RPMI) 1640
(§29) medium supplemented with 10% heat-inactivated fetal bovine serum, 2 mM L-glutamine, 1 mM
(§30) Na-pyruvate and 100 mM Hepes. The cell lines were incubated at 37°C, in a 5% CO2, 95% air
as §3, §4, §5, §6, §7, §8, §9, §10, §11, §12, §13, §14, §15, §16, §17, §18, §19, §20, §21, §22, §23
(§31) 0.76 tyrosyl radical/polypeptide. Samples containing 20 µM mR2 in 50 mM HEPES buffer, pH
(§32) 7.50/100 mM NaCl, and 20 µM respective compound in 1% (v/v) DMSO/H2O, and 2 mM

mouse R2 RNR protein = biological target: T1, mouse R2 RNR protein (Mus musculus, UniProt P11157); assay: Tyrosyl radical reduction in mouse R2 RNR protein (EPR); format: biochemical; conditions: 20 μM compound
T1 construct: made in house
T1 sequence (P11157 1-390): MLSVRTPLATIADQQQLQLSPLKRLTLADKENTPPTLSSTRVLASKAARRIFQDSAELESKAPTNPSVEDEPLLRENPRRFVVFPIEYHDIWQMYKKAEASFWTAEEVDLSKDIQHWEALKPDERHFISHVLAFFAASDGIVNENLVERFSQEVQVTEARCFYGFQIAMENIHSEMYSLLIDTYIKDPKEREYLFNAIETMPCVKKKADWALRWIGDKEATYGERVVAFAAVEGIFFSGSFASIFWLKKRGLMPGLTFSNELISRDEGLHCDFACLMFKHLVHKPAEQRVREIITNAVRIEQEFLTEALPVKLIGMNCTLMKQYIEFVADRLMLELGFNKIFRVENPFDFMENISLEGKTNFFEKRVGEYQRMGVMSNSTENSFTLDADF
Description: The time-dependent tyrosyl radical reduction in mR2 RNR by equimolar concentrations of TSCs and their respective copper(II) complexes, under reducing conditions, is shown in Figure 15. […] The favorable impact of the copper(II) coordination on the HL^2 inhibitory activity is quite obvious, when the ability to quench the tyrosyl radical by HL^2 is compared to that of 2′.
The samples contained 20 μM mR2 in 50 mM HEPES buffer, pH 7.60/100 mM KCl, 20 μM compound in 1% (v/v) DMSO/H2O, and 2 mM DTT. […]
2.6. Tyrosyl radical reduction in mouse R2 RNR protein
The tyrosyl radical reduction in mR2 protein by HL1, HL2, HL3, Cu(HL1)Cl2, [Cu(L2)Cl],
Cu(HL3)Cl2, HL1a’, HL1a’’, and HL2c´·CH3COOH was measured by EPR spectroscopy at 30 K,
on a Bruker Elexsys II E540 EPR spectrometer with an Oxford Instruments ER 4112HV helium
cryostat, as described previously.12,13 mR2 protein was expressed, purified, and iron -reconstituted
as described previously, 14 and passed through a 5 mL HiTrap desalting column (GE Healthcare)
as §31, §32
dithiothreitol (DTT) were incubated for indicated times and quickly frozen in cold isopentane. The
same samples were used for repeated incubations at room temperature. […]
Furthermore, the intrinsic reaction coordinate (IRC) analysis was
performed to authenticate that the transition state pertains to the desired reaction coordinate. The
IRC calculations were done at the B3LYP/6-311++G(d,p) level of theory. Molecular orbitals were
drawn using Molekel software.17
3. Schemes for assignment of resonances in HL1 – HL3 and their isomers
Scheme S1. The atom numbering for the assignment of resonances in HL1 – HL3.
(1 picture or pasted object on this page, not shown here)

Colo205 [4] = assay: MTT cytotoxicity assay, Colo205; format: cell-based; conditions: Homo sapiens, COLO 205, 72 h of exposure
Description: as §24, §1, §2, §25, §26, §27, §28, §29, §30, §3, §4, §5, §6, §7, §8, §9, §10, §11, §12, §13, §14, §15, §16, §17, §18, §19, §20, §21, §22, §23, §31, §32

MRC-5 [5] = test system: MRC-5; set-up: method as in doi:10.1039/D0NJ01070G; conditions: 72 h of exposure; ref [77]; cited from earlier work
Colo320 [6] = test system: Colo320; set-up: method as in doi:10.1039/D0NJ01070G; conditions: 72 h of exposure; ref [77]; cited from earlier work
Colo205 [7] = test system: Colo205; set-up: method as in doi:10.1039/D0NJ01070G; conditions: 72 h of exposure; ref [77]; cited from earlier work
[8] = test system: SW480, MES-SA, MES-SA/Dx5, HL60, 41M, SK-BR-3; set-up: method as in PMID 32336116, PMID 22189939, PMID 31250199; conditions: several human cancer cells; ref [36],[58],[80]; read-out: IC50 values reported; cited from earlier work
[9] = ref [67]; cited from earlier work

For `NC(=O)NO` [hydroxyurea], which redox potential [1] is on record?
The redox potential was “+0.724 V”.

Which results are given for `N.N.[Cl][Pt][Cl]` [cisplatin, reference compound]?
Cell death % Q1 (Colo320 cells; 15 µM): 1.64%; Early apoptosis % Q3 (Colo320 cells; 15 µM): 1.68%; Late apoptosis and necrosis % Q2 (Colo320 cells; 15 µM): 2.24%; Cell death % Q1 (Colo320 cells; 30 µM): 0.79%; Early apoptosis % Q3 (Colo320 cells; 30 µM): 4.90%; Late apoptosis and necrosis % Q2 (Colo320 cells; 30 µM): 4.07%

Which IC50 (MRC-5 [2]) does the source give for `Cc1cc(Nc2nnc(-c3ccccn3)s2)cc(C)c1O` [HL^1a′] here?
The IC50 was > 25 µM.

What about the IC50 (Colo320 [3]) of the same compound?
Its IC50 is > 25 µM.

And the “effect on the tyrosyl radical content in the presence of DTT” value (mouse R2 RNR protein; 2 mM DTT)?
Its value is “cause an increase in the radical content”.

What about the “effect on the tyrosyl radical in the absence of DTT” value (mouse R2 RNR protein; no DTT) of the same compound?
Its value is “do not have an effect”.

What about the IC50 (Colo205 [4]) of the same compound?
The IC50 was > 25 µM.

What does the source list for `[Cl][Cu][Cl]` [CuCl2, copper(II) chloride]?
IC50 (MRC-5 [5]): 24.5 µM; IC50 (Colo320 [6]): 20 µM; IC50 (Colo205 [7]): 19.7 µM

With `NC(=S)NN=Cc1ccccn1` [FTSC, 2-formylpyridine TSC] as the compound, how does the IC50 [8] read?
The IC50 was 1.9 to 10.6 µM.

What about the “log D7.4” value [9] of the same compound?
The value was “+0.73”.

Which “Cell death % Q1” value (Colo320 cells; 10 µM) does the source give for `c1ccc2c(c1)Nc1c(ccc3ccccc13)S2` [M627, 12H-Benzophenothiazine, reference compound] here?
Its value is 4.59%.

What about the “Early apoptosis % Q3” value (Colo320 cells; 10 µM) of the same compound?
The value was 12.4%.

And the “Late apoptosis and necrosis % Q2” value (Colo320 cells; 10 µM)?
The value was 31.5%.

What about the “Cell death % Q1” value (Colo320 cells; 20 µM) of the same compound?
The value was 7.85%.

What about the “Early apoptosis % Q3” value (Colo320 cells; 20 µM) of the same compound?
The value was 11.1%.

What about the “Late apoptosis and necrosis % Q2” value (Colo320 cells; 20 µM) of the same compound?
The value was 26.1%.
